The results in this text go back to patent US20120012499A1, “TABLET FORMULATION” (Novo Nordisk A/S, priority 2006, published 2012).

≈ marks a conversion by molar mass, not a printed value.

Usually solubility stands for how much of the substance goes into solution per volume. A lower solubility goes with a poorly soluble substance.

A short description of this data set: solubility of drug substance in pH 5.0 buffer solution. The format is physicochemical. The conditions noted are these: aqueous buffer.

In the case of `CCOc1cc(CC(=O)N[C@@H](CC(C)C)c2ccccc2N2CCCCC2)ccc1C(=O)O` [repaglinide, (S)-2-Ethoxy-4-[2-[[3-methyl-1-[2-(1-piperidinyl)phenyl]butyl]amino]-2-oxoethyl]benzoic acid], the solubility was found to be 9 µg/mL (≈ 19.9 µM).
